Results taken from patent US20140051650A1, “VAGINAL COMPOSITIONS BASED ON ALKYL POLYGLUCOSIDES” (EFFIK S.A., priority 2011, published 2014).
Values after ≈ are worked out from the molar mass of the structure shown. Read-outs that look alike come from different tables or passages of the source.

How the values were obtained:
[1] = system: Streptococcus agalactiae; experiment: Minimum Bactericidal Concentration (MBC) in liquid medium against Streptococcus agalactiae; format: cell-based
Description: Three Streptococcus agalactiae strains isolated from vaginal-rectal buffers during the prenatal check-ups were used for the assay. The strains were named “strain 2”, “strain 10” and “strain 11”. Isolation was carried out on a blood agar medium and identification was obtained through biochemical tests of the API 20 Strep (Bio-Mérieux) system and through the identification of the Lancefield group.
The experiments were also carried out on a Streptococcus agalactiae ATCC 12386 strain.
“Brain Heart Infusion broth” (BHIb, Becton Dickinson) medium was used for the Streptococcus agalactiae culture, “Mueller-Hinton broth” (M-Hb) medium after adding 2% “laked” horse blood and the “Mueller-Hinton agar” (M-Ha) medium with addition of defibrinated horse blood at 5% (Oxoid) were used for the antimicrobial activity assays.
The Streptococcus agalactiae strains were cultured in BHIb broth for 24 hours at 37° C. Immediately before the assay, the bacterial suspensions were diluted up to obtaining turbidity equivalent to 0.5 McFarland standard. 50 μl of a further 1:100 dilution in broth+blood at 2% were distributed in the wells of the microtitre plates. The presumed titre of the inoculum carried out through this procedure is of about 5×10^4 ufc (units forming colony)/well.
The bacterial cultures were also diluted serially according to a value 10 (up to a dilution value equivalent to 10^−7) and an aliquot of 0.1 ml of each dilution was double streaked on M-Ha +blood 5% for determining the actual titre to be used, subsequently, to determine the MBC (Minimum Bactericidal Concentration).
The assay was carried out in 96-well microtitre plates. 50 μl of M-Hb at normal concentration were deposited in the first well of each of the 5 rows. Starting from the first well of each row, […] volumes were transferred from each well to the subsequent one 10 times, thus obtaining a series of dilutions after doubling. The 12th well of each row was kept substance-free as a positive control of the bacterial growth.
Subsequently, 50 μl of bacterial inoculum of M-Hb+double concentration blood (4%) were deposited in all wells of the plate, except for the 11th of each row. Only M-Hb+double concentration blood but bacteria-free, were deposited in the 11th well, with the aim of providing negative control for each row. The described scheme was used for the assay of each of the three Streptococcus agalactiae strains.
(§1) Immediately after determining the value of the MIC for each substance, a volume equivalent to 50 μl was taken from each well and streaked on the surface of plates containing the solid medium. The plates were subsequently incubated at the conditions indicated for each microbial strain. After incubation at 37° C. for 24 hours, the number of colonies grown on the medium surface was counted thus determining the number of bacteria that survived after 24 hours of contact with the substance at the concentration present in the well. The MBC value defined as the lowest concentration of each substance capable of reducing the bacterial load by 99.9% in the previously defined assay conditions was determined through comparison between the number of bacteria that survived in each well and that of the bacterial inoculum deposited initially.

[2] = system: Streptococcus agalactiae; experiment: Minimum Inhibitory Concentration (MIC) on agarised medium against Streptococcus agalactiae; format: cell-based
Description: The assay was carried out on an M-Ha medium+blood at 5%. The medium was prepared at a concentration 33% higher with respect to the final one used in the test corresponding to the one indicated by the supplier. After sterilisation in autoclave, the medium was balanced at the temperature of 48° C. and added with horse blood at the concentration of 6.6% (33% higher than the final concentration of the assay). 15 ml aliquots of M-Ha medium+blood were transferred into 50 ml falcon test tubes maintained at 48° C., added with 5 ml of the dilutions of the substances to be assayed, mixed, poured into Petri dishes and left to solidify. Twenty-five bacterial inoculums, each with approximate volume of about 5 μl and containing about 10^5 ufc, were deposited on the surface of the M-Ha medium+blood of each plate. After incubation at 37° C. for 18 hours the minimum inhibitory concentration (MIC) defined as the minimum concentration of substance capable of inhibiting a bacterial growth noticeable to the naked eye at the area of deposition of the inoculums was read.
In the test with Streptococcus agalactiae the minimum inhibitory concentrations in the assay in liquid medium, regarding which only the bactericide minimum concentration values are indicated, could not be determined with sufficient reliability due to the turbidity of the solutions containing the substances. “Determination of the Minimum Inhibitory Concentration on Agarised Medium” was carried out to obtain the MIC values.

[3] = system: Candida albicans ATCC 10231; experiment: MIC against Candida albicans; format: cell-based; details: substance alone
Description: (§2) The Gardnerella vaginalis ATCC 14018 strain, the Neisseria gonorrhoeae ATCC 43069 strain and the Candida albicans ATCC 10231 strain were also used for the experiment.
(§3) The other assayed microbial strains were cultured in the liquid media and in the incubation conditions specified in table A, following the operating procedure described above.
(§4) The assay was carried out in 96-well microtitre plates. 50 μl of substance solution at the “mother” concentration alongside 50 μl of liquid medium at double concentration were deposited in the first well of each of the 8 rows while 50 μl of liquid medium at normal concentration were deposited in the remaining 11 wells. Starting from the first well of each row, 50 μl volumes were transferred from each well to the subsequent one 10 times, thus obtaining a series of 11 dilutions after doubling. The 12th well of each row was kept substance-free as a function of positive control of the bacterial growth.
Subsequently, 50 μl of diluted bacterial inoculum as specified previously were deposited in all wells of the plate, except for the 11th of each row. Only the liquid medium at single concentration but bacteria-free, was deposited in the 11th well, with the aim of providing negative control for each row. The described scheme was used for the assay with each of the assayed microbial strains.
After incubation at the conditions indicated regarding each micro-organism, the microtitre plates were examined to verify, in each well, the presence or absence of bacterial growth. The minimum inhibitory concentration is defined as the lowest concentration of the substance still capable of inhibiting bacterial growth i.e. preventing the liquid from becoming turbid within the well.

[4] = system: Candida albicans ATCC 10231; experiment: MBC against Candida albicans; format: cell-based; details: substance alone
Description: as §1, with “The Gardnerella vaginalis ATCC 14018 strain, the Neisseria gonorrhoeae ATCC 43069 strain and the Candida albicans ATCC 10231 strain were also used for the experiment. [table] The other assayed microbial strains were cultured in the liquid media and in the incubation conditions specified in table A, following the operating procedure described above. Immediately” for “Immediately”

[5] = system: Gardnerella vaginalis ATCC 14018; experiment: MIC against Gardnerella vaginalis; format: cell-based; details: substance alone
Description: as §2, §3, §4
(§5) Subsequently, 50 μl of diluted bacterial inoculum as specified previously were deposited in all wells of the plate, except for the 11th of each row. Only the liquid medium at single concentration but bacteria-free, was deposited in the 11th well, with the aim of providing negative control for each row. The described scheme was used for the assay with each of the assayed microbial strains. […]

[6] = system: Gardnerella vaginalis ATCC 14018; experiment: MBC against Gardnerella vaginalis; format: cell-based; details: substance alone
Description: as §1, with “The Gardnerella vaginalis ATCC 14018 strain, the Neisseria gonorrhoeae ATCC 43069 strain and the Candida albicans ATCC 10231 strain were also used for the experiment. [table] The other assayed microbial strains were cultured in the liquid media and in the incubation conditions specified in table A, following the operating procedure described above. Immediately” for “Immediately”

[7] = "Mother" concentration: highest concentration at which complete solubilisation could be obtained; format: physicochemical; details: propylene glycol 30% in water, aqueous with cosolvent or surfactant or cyclodextrin; solvent prop glycol 30% in water; read-out: "mother" conc. (highest concentration at which complete solubilisation could be obtained)
Description: The substances to be subjected to the analysis were prepared for the assay through dilution and sterilisation as described hereinafter.
The concentration of the substances referred to as “mother” represents the highest concentration at which complete solubilisation could be obtained and it is […] than the highest concentration assayed in the test.

[8] = system: Neisseria gonorrhoeae ATCC 43069; experiment: MIC against Neisseria gonorrhoeae; format: cell-based; details: substance alone
Description: as §2, §3, §4, §5

[9] = system: Neisseria gonorrhoeae ATCC 43069; experiment: MBC against Neisseria gonorrhoeae; format: cell-based; details: substance alone
Description: as §1, with “The Gardnerella vaginalis ATCC 14018 strain, the Neisseria gonorrhoeae ATCC 43069 strain and the Candida albicans ATCC 10231 strain were also used for the experiment. [table] The other assayed microbial strains were cultured in the liquid media and in the incubation conditions specified in table A, following the operating procedure described above. Immediately” for “Immediately”

[10] = ATCC 12386 in M-Hb blood 2%, substance alone
[11] = Strain 2 in M-Hb blood 2%, substance alone
[12] = Strain 10 in M-Hb blood 2%, substance alone
[13] = Strain 11 in M-Hb blood 2%, substance alone

SMILES	MBC [1, 10]	MBC [1, 11]	MBC [1, 12]	MBC [1, 13]	MIC (minimum inhibiting concentration) ([2]; strain 2, substance alone) [%]	MIC (minimum inhibiting concentration) ([2]; strain 5, substance alone) [%]	MIC (minimum inhibiting concentration) ([2]; strain 6, substance alone) [%]	MIC (minimum inhibiting concentration) ([2]; strain 7, substance alone) [%]	MIC (minimum inhibiting concentration) ([2]; strain 8, substance alone) [%]	MIC (minimum inhibiting concentration) ([2]; strain 9, substance alone) [%]	MIC (minimum inhibiting concentration) ([2]; strain 10, substance alone) [%]	MIC (minimum inhibiting concentration) ([2]; strain 11, substance alone) [%]	MIC (minimum inhibiting concentration) ([2]; strain 12, substance alone) [%]	MIC (minimum inhibiting concentration) ([2]; strain 13, substance alone) [%]	MIC (minimum inhibiting concentration) ([2]; strain 14, substance alone) [%]	MIC (minimum inhibiting concentration) ([2]; strain 15, substance alone) [%]	MIC (minimum inhibiting concentration) ([2]; strain 16, substance alone) [%]	MIC (minimum inhibiting concentration) ([2]; strain 17, substance alone) [%]	MIC (minimum inhibiting concentration) ([2]; strain 18, substance alone) [%]	MIC (minimum inhibiting concentration) ([2]; strain 19, substance alone) [%]	also measured
CCCCCCCCCCCC(=O)OCC(O)CO (stereo not drawn) [G, monolaurate]	0.107	0.107	0.428	0.107	0.11	0.11	0.11	0.11	0.22	0.11	0.22	0.11	0.11	0.11	0.11	0.11	0.11	0.11	0.22	0.11	MIC (minimum inhibiting concentration) ([2]; strain 20, substance alone): 0.11%; MIC (minimum inhibiting concentration) ([2]; strain 21, substance alone): 0.11%; MIC (minimum inhibiting concentration) ([2]; strain 22, substance alone): 0.11%; MIC (minimum inhibiting concentration) ([2]; strain 23, substance alone): 0.11%; MIC (minimum inhibiting concentration) ([2]; strain 24, substance alone): 0.11%; MIC (minimum inhibiting concentration) ([2]; strain 25, substance alone): 0.11%; MIC (minimum inhibiting concentration) ([2]; strain 12386, substance alone): 0.11%; MIC (minimum inhibiting concentration) ([2]; strain 12403, substance alone): 0.11%; MIC (minimum inhibiting concentration) ([2]; strain 27956, substance alone): 0.11%
Clc1ccc(COC(Cn2ccnc2)c2ccc(Cl)cc2Cl)c(Cl)c1 (stereo not drawn) [miconazole]																					MIC [3]: 0.000012%; MBC [4]: 0.0008%
Clc1ccc(COC(Cn2ccnc2)c2ccc(Cl)cc2Cl)cc1 (stereo not drawn) [econazole]																					MIC [3]: 0.000025%; MBC [4]: 0.0008%
Cc1ncc([N+](=O)[O-])n1CCO [metronidazole, reference compound]																					MIC [5]: 0.0004%; MBC [6]: 0.0008%
CCCCCCCCCCCC(=O)O [F, lauric acid]	0.25	≧0.25	≧0.25	0.25	0.25	0.25	0.25	0.25	0.25	0.25	0.25	0.25	0.25	0.25	0.25	0.25	0.25	0.25	0.25	0.25	MIC (minimum inhibiting concentration) ([2]; strain 20, substance alone): 0.25%; MIC (minimum inhibiting concentration) ([2]; strain 21, substance alone): 0.25%; MIC (minimum inhibiting concentration) ([2]; strain 22, substance alone): 0.25%; MIC (minimum inhibiting concentration) ([2]; strain 23, substance alone): 0.25%; MIC (minimum inhibiting concentration) ([2]; strain 24, substance alone): 0.25%; MIC (minimum inhibiting concentration) ([2]; strain 25, substance alone): 0.25%; MIC (minimum inhibiting concentration) ([2]; strain 12386, substance alone): 0.25%; MIC (minimum inhibiting concentration) ([2]; strain 12403, substance alone): 0.25%; MIC (minimum inhibiting concentration) ([2]; strain 27956, substance alone): 0.25%; solubility [7]: 10.1 mg/mL (≈ 50300 µM)
CC1(C)S[C@@H]2[C@H](NC(=O)[C@H](N)c3ccccc3)C(=O)N2[C@H]1C(=O)O [Ampicillin, reference compound]																					MBC ([1]; Streptococcus agalactiae, ATCC12386, ATCC 12386 in M-Hb blood 2%, reference antibiotic, read-out: MBC): 0.5 µg/mL (≈ 1.43 µM); MBC ([1]; Streptococcus agalactiae, Strain 2 in M-Hb blood 2%, reference antibiotic, read-out: MBC): < 0.06 µg/mL; MBC ([1]; Streptococcus agalactiae, Strain 10 in M-Hb blood 2%, reference antibiotic, read-out: MBC): 1 µg/mL (≈ 2.86 µM); MBC ([1]; Streptococcus agalactiae, Strain 11 in M-Hb blood 2%, reference antibiotic, read-out: MBC): < 0.06 µg/mL; concentrations required to perform the bactericidal action, times higher in strain 10 than against strain 2 and 11 ([1]; strain 10 versus strains 2 and 11): at least 15 times; MIC [8]: ≦0.000012%; MBC [9]: ≦0.000012%
